Assay results taken from patent publication US20260325473A1, “N-Beta-Hydroxybutyryl-Amino Acids and Related Compositions and Methods” (The Board of Trustees of the Leland Stanford Junior …, priority 2023, published 2026).

Legend:
[1] = Human ketone ester supplementation study, plasma metabolites; format: in vivo; details: 0.3 g/kg ketone ester, 60 min vs baseline
Description: Targeted metabolomics. Targeted measurements were performed using an Agilent 6470 triple quadrupole LC-MS instrument. MS analysis was performed using AJS in negative mode. The AJS source parameters were set as follows: the dry gas temperature was set at 250° C. with a gas flow of 12 l/min and the nebulizer pressure at 25 psi; the sheath gas temperature was set to 300° C. with the sheath gas flow set at 12 l/min; and the capillary voltage was set to 3,500 V. Separation of polar metabolites was performed as described above in the ‘Untargeted measurements of metabolites by LC-MS’ section. Multiple reaction monitoring was performed for the indicated metabolites with the listed dwell times, fragmentor voltage, collision energies, cell accelerator voltages and polarities. Quantification of the endogenous metabolite concentrations were performed by generating a standard curve with known concentrations of each metabolite. Metabolite standards were analyzed alongside the plasma samples using the same targeted triple quadrupole LC/MS method. A calibration standard curve generated from the metabolite standard concentrations and total peak areas were used to calculate the concentrations of each endogenous metabolite. The dilution of the plasma during the sample preparation was also taken into account for the quantification.
Human ketone ester supplementation study. Following screening, eligible subjects participated in a randomized, counter-balanced, double-blind, placebo-controlled crossover trial comparing BHB supplementation versus placebo, separated by a minimum of 2 days (ClinicalTrials.gov ID NCT04194450). Pre-menopausal women were tested in the follicular phase (days 3-9). Participants were asked to refrain from structured exercise and alcohol, limit physical activity, and follow a standardized diet (~50% carbohydrate, ~30% fat, ~20% protein) on the day before each trial. After refraining from medication use for 24 hours, participants reported to the Exercise, Metabolism and Inflammation Laboratory at the University of British Columbia-Okanagan in an overnight fasted state. Anthropometric measurements were obtained prior to insertion of an indwelling intravenous catheter into the antecubital vein for repeated blood sampling. Blood was collected into EDTA tubes (BD, 367863) and immediately centrifuged at 2000 rpm for 15 min and the top layer of plasma was aliquoted and frozen at −80 °C. After baseline (0) blood sample collection, the oral BHB supplement or placebo was consumed in liquid form (~30-65 mL). The BHB supplement (H.V.M.N®, USA) in the form of the ketone monoester (R)-3-hydroxybutyl (R)-3-hydroxybutyrate (AG®, TDeltaS, Oxford, UK) contained 0.4 g mL-1 BHB, natural flavoring, and <2% stevia leaf extract. The taste-matched placebo drink contained the same natural flavoring as the ketone supplement, stevia leaf extract, 5 mL of Bittrex stock (0.005 g of denatonium benzoate powder in 40 ml of water) and 1.5 mL of arrowroot stock (2 g of arrowroot powder in 50 ml of water) to match the bitter flavor and viscosity of the ketone monoester. Supplements were dispensed into opaque 80 ml bottles with volume calculated for 0.3 g BHB/kg body weight and labelled either A or B by a third-party researcher. Blinding was maintained until completion of data collection and analyses.

CNDP2 = biological target: T1, CNDP2 (Mus musculus, UniProt Q9D1A2); assay: Tissue enzyme activity, WT or CNDP2-KO mouse tissue lysates; format: biochemical; details: role: product; for synthesis activity in WT kidney and gut: 1 h, 37° C
T1 sequence (Q9D1A2 1-475): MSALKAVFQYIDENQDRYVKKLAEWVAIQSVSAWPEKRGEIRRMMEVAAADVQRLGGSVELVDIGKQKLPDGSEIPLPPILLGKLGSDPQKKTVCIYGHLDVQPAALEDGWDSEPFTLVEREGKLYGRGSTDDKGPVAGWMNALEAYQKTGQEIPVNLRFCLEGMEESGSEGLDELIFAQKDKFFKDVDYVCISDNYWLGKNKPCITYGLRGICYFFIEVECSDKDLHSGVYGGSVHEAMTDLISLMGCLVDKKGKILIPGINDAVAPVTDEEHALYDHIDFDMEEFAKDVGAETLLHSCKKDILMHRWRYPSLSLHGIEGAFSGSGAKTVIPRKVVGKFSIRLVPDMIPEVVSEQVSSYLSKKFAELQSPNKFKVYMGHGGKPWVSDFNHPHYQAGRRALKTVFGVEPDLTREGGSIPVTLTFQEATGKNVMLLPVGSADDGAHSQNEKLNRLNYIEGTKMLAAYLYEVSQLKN
Description: Tissue enzyme activity assays. Mouse tissues were mixed with cold PBS and homogenized using a Benchmark BeadBlaster Homogenizer at 4 °C. Protein concentrations were adjusted and the resulting crude was filtered through a 0.45-μm filter to remove insoluble materials. The in vitro reactions were conducted in Eppendorf tubes with 200 μg protein and incubation with the corresponding substrates at 37° C. for 1 hour. After that time, 10 μl of HCl and 400 μl of ethyl acetate were added in the BHB and lactate reactions and the samples were vortexed for 30 s. Reactions were centrifuged at 4° C. for 10 min at 15,000 r.p.m. and total of 300 μl from the top layer was transferred to a new Eppendorf tube and dried down under a stream of nitrogen. The residue was re-suspended in 100 μl of an 2:1:1 mixture of acetonitrile: methanol: water. The mixture was centrifuged at 4° C. for 10 min at 15,000 r.p.m. and the supernatant was transferred to a LC-MS vial. For carnosine reactions, the reactions were not acidified and were directly quenched with 300 μl of an 2:1:1 mixture of acetonitrile: methanol: water after the 1 h incubation and vortexed for 30 s. The mixture was centrifuged at 4° C. for 10 min at 15,000 r.p.m. and the supernatant was transferred to a LC-MS vial.

Row | SMILES | elevation of plasma keto amino acid after ketone ester drink [1] [fold] | synthesis activity in WT brain, liver, and quadriceps (CNDP2; BHB 20 mM + Phe 20 mM) | reduction of synthesis activity in CNDP2-KO vs WT, brain (CNDP2; BHB 20 mM + Phe 20 mM, brain) [%] | reduction of synthesis activity in CNDP2-KO vs WT, gut (CNDP2; BHB 20 mM + Phe 20 mM, gut) [%] | reduction of synthesis activity in CNDP2-KO vs WT, kidney (CNDP2; BHB 20 mM + Phe 20 mM, kidney) [%] | reduction of synthesis activity in CNDP2-KO vs WT, liver (CNDP2; BHB 20 mM + Phe 20 mM, liver) [%] | reduction of synthesis activity in CNDP2-KO vs WT, quadriceps (CNDP2; BHB 20 mM + Phe 20 mM, quadriceps) [%] | synthesis activity in WT kidney and gut (CNDP2; BHB 20 mM + amino acid 20 mM) | BHB-amino acid synthesis activity in CNDP2-KO kidney and gut (CNDP2; BHB 20 mM + amino acid 20 mM)
1 | CC(O)CC(=O)N[C@@H](Cc1ccccc1)C(=O)O (some centres unmarked) [BHB-Phe, N-betahydroxybutyryl-phenylalanine] | 3 | lower, but detectable | > 85 | > 95 | > 95 | > 75 | > 60 | highest BHB-Phe synthesis activity | 
2 | CC(O)CC(=O)N[C@H](C(=O)O)C(C)C (some centres unmarked) [BHB-Val, N-betahydroxybutyryl-valine] | 2.5 |  |  |  |  |  |  | highest BHB-amino acid synthesis activity | largely abolished
